Test results as given in patent publication US9492465B2, “Gold(I) complexes with t-butyl phosphine and dialkyl dithiocarbamate ligands” (KING FAHD UNIVERSITY OF PETROLEUM AND MINERALS, priority 2014, dated 2016).

Key:
Type in all cases: cell-based
[1] = tested on: A549 (human lung carcinoma) cell line; assay: in vitro cytotoxicity, MTT assay, A549 cell line; conditions: 24 h exposure, read-out: IC50 Values against A549
Description: (§1) The cells were seeded at 4×10^3 cells/well in 100 μL DMEM (Dulbecco's Modified Eagle's Medium) containing 10%. FBS (Fetal Bovine Serum) in 96-wells tissue culture plate and incubated for 72 h at 37° C., 5% CO2 in air and 90% relative humidity in CO2 incubator. […] The medium of wells was discarded and 100 μL DMEM containing MTT (3-(4,5-Dimethylthiazol-2-Yl)-2,5-Diphenyltetrazolium Bromide) (5 mg/mL) was added to the wells and incubated in CO2 incubator at 37° C. in dark for 4 h. After incubation, a purple colored formazan (artificial chromogenic dye, product of the reduction of water insoluble tetrazolium salts e.g., MMT by dehydrogenases and reductases) in the cells is produced and appeared as dark crystals in the bottom of the wells. The medium of culture was discarded from each well carefully to avoid disruption of monolayer and 100 μL of Dimethylsufoxide (DMSO) was added in each well. The solution was thoroughly mixed in the wells to dissolve the formazan crystals which ultimately result into a purple solution. The absorbance of the 96-wells plate was taken at 570 nm with Labsystems Multiskan EX-Enzyme-linked immunosorbent assay (EX-ELISA) reader against a reagent blank.
(§2) The in vitro cytotoxicity tests were evaluated for the gold(I) precursor, labeled as (0) and two synthesized complexes labeled as (1) and (2)against three human cancer cell lines, MCF7, HeLa and A549 using MTT assay.

[2] = tested on: HeLa (human cervical cancer) cell line; assay: in vitro cytotoxicity, MTT assay, HeLa cell line; conditions: for IC50: HeLa cell line, 24 h exposure, read-out: IC50 Values against HeLa; for IC50 / percent viability of HeLa: MTT; for percent viability of HeLa: 24 h; for cytotoxic effects on HeLa cell line compared with Auranofin: 50 μg/mL concentration
Description: as §1, §2

[3] = tested on: MCF7 (human breast cancer) cell line; assay: in vitro cytotoxicity, MTT assay, MCF7 cell line; conditions: 24 h exposure, read-out: IC50 Values against MCF7
Description: Metal precursor and two synthesized compound (1)and compound (2) were evaluated for their in-vitro cytotoxic activity against MCF7 (human breast cancer), HeLa (human cervical cancer) and A549 (human lung carcinoma) cell lines.
The cells were seeded at 4×10^3 cells/well in 100 μL DMEM (Dulbecco's Modified Eagle's Medium) containing 10%. FBS (Fetal Bovine Serum) in 96-wells tissue culture plate and incubated for 72 h at 37° C., 5% CO2 in air and 90% relative humidity in CO2 incubator. After incubation, 100 μL of complex (0),(1)and (2) (50, 25, 12.5, 6.25 and 3.12 μg/mL), prepared in DMEM, was added to cells and the cultures were incubated for 24 h. The medium of wells was discarded and 100 μL DMEM containing MTT (3-(4,5-Dimethylthiazol-2-Yl)-2,5-Diphenyltetrazolium Bromide) (5 mg/mL) was added to the wells and incubated in CO2 incubator at 37° C. in dark for 4 h. After incubation, a purple colored formazan (artificial chromogenic dye, product of the reduction of water insoluble tetrazolium salts e.g., MMT by dehydrogenases and reductases) in the cells is produced and appeared as dark crystals in the bottom of the wells. The medium of culture was discarded from each well carefully to avoid disruption of monolayer and 100 μL of Dimethylsufoxide (DMSO) was added in each well. The solution was thoroughly mixed in the wells to dissolve the formazan crystals which ultimately result into a purple solution. The absorbance of the 96-wells plate was taken at 570 nm with Labsystems Multiskan EX-Enzyme-linked immunosorbent assay (EX-ELISA) reader against a reagent blank.
The in vitro cytotoxicity tests were evaluated for the gold(I) precursor, labeled as (0) and two synthesized complexes labeled as (1) and (2)against three human cancer cell lines, MCF7, HeLa and A549 using MTT assay. The dose dependent cytotoxic effect was obtained by the stipulated increase in concentrations of complexes (0), (1) and (2) against the fixed number of human cancer cells. […] FIG. 3 is a graph of the in vitro cytotoxic effect of series of concentrations of compound (0) on MCF7 cell line. […]

[4] = concentration 3.12 (title μM, head iM)
[5] = concentration 6.25 (title μM, head iM)
[6] = concentration 12.5 (title μM, head iM)
[7] = concentration 25 (title μM, head iM)
[8] = concentration 50 (title μM, head iM)

Row | Structure (SMILES) | IC50 [1] [µM] | IC50 [2] [µM] | percent viability of HeLa [2, 4] [%] | percent viability of HeLa [2, 5] [%] | percent viability of HeLa [2, 6] [%] | percent viability of HeLa [2, 7] [%] | percent viability of HeLa [2, 8] [%] | IC50 [3] [µM] | cytotoxic effects on HeLa cell line compared with Auranofin [2]
1 | CC(C)(C)P(C(C)(C)C)C(C)(C)C.[Cl][Au] [Complex (0), [Au{P(t-Bu)3}(Cl)], reference compound] | 14.3 | 16 | 93.6 ± 2.4 | 89.5 ± 2.3 | 81.9 ± 1.9 | 27.3 ± 1.5 | 12.4 ± 1.1 | 16.7 | 
2 | CN(C)C(=S)[S][Au][PH](C(C)(C)C)(C(C)(C)C)C(C)(C)C [Complex (1), [Au{P(t-Bu)3}(S2CN(CH3)2)]] | 26.9 | 2.07 | 50.6 ± 1.5 | 34.4 ± 0.9 | 19.5 ± 1.4 | 15.3 ± 1.1 | 8.7 ± 1.2 | 21.1 | better than Auranofin
3 | CCN(CC)C(=S)[S][Au][PH](C(C)(C)C)(C(C)(C)C)C(C)(C)C [Complex (2), [Au{P(t-Bu)3}(S2CN(C2H5)2)]] | 19.4 | 3.21 | 53.9 ± 1.9 | 38.6 ± 1.2 | 27.9 ± 1.0 | 22.9 ± 1.2 | 9.41 ± 1.16 | 16 | better than Auranofin
